Results on 1 molecule are retold here after patent publication US20030083469A1, “Allosteric control of nuclear hormone receptors” (The Salk Institute for Biological Studies, priority 1995, published 2003).

The target in test [1] is T1, GST-hRXRα (Homo sapiens, UniProt P19793).
T1 construct: made in house
T1 sequence (P19793 1-462): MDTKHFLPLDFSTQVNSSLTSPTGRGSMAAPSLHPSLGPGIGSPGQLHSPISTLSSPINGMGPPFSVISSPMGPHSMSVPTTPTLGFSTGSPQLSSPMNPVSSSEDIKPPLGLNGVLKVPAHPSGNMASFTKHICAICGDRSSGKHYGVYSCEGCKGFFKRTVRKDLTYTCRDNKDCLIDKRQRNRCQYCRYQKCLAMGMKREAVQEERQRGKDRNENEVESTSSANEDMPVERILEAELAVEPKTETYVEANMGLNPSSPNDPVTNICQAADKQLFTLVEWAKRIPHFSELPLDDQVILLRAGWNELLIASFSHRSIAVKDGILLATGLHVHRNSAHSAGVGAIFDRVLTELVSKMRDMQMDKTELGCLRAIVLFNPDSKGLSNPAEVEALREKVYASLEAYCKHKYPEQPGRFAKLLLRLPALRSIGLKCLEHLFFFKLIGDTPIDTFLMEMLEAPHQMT
The experiment in a line: Ligand binding assay with GST-RXR (glutathione-sepharose). To be noted: 50 nM [3H] LG69; 2 μM unlabeled ligand.

The target in test [2] is T2, Nurrl-RXR heterodimer complex (Homo sapiens, UniProt P19793).
T2 construct: transient transfection analysis of full-length Nurrl and/or RXR; expressed in transfected cells; host or cells: CV-1
T2 sequence (Q06219 whole entry partner, one chain of several): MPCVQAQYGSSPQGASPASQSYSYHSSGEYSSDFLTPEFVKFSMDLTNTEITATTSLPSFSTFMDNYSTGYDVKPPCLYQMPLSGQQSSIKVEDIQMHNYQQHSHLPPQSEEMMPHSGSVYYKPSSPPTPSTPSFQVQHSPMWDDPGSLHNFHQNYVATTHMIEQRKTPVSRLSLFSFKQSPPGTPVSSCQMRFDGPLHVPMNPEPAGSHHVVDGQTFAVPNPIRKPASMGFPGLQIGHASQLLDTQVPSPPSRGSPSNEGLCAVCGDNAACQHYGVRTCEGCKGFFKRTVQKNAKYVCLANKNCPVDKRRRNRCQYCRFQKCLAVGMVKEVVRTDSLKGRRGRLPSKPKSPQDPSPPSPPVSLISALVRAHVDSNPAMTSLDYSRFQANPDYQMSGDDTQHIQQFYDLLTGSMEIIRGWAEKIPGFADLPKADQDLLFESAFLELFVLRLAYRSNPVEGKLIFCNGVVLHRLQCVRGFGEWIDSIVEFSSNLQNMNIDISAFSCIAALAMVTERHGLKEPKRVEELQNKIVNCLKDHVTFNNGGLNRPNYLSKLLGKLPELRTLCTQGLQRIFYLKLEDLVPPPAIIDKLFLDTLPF
The experiment in a line: Transient transfection of full-length Nurrl and RXR on NBRE x3 TK-LUC. Type of test: cell-based, mouse Nurrl, human RXRα. Here is the method: (§1) One day prior to transfection, cells were plated to 50-80% confluence using phenol-red free DMEM-FBS. Cells were transfected by lipofection using N-{2-(2,3)-dioleoyloxy)propyl-N,N,N-trimethyl ammonium methyl sulfate} according to the manufacturer's instructions (DOTAP, Boehringer Mannheim).
(§2) Thus, CV-1 cells were tranfected with NBRE×3 TK-LUC (300 ng/10^5 cells) , CMX-βgal (500 ng/10^5 cells), alone or with CMX-Nurrl (100 ng/10^5 cells) and CMX-hRXRα (100 ng/10^5 cells) as indicated in FIG. 7B. Following transfection, cells were treated with or without 100 nM LG69. Normalized luciferase activity was determined and plotted as reporter activity.
Using sub-optimal amounts of RXR-expression vector, the CRBPII reporter was compared with a 3-copy NBRE reporter as follows. Cells were transfected as described with respect to FIG. 7B, but with a 5-fold lower amount of CMX-hRXRα (20 ng/10^5 cells). CRBPII TK-LUC (300 ng/10^5 cells) was used where indicated.

Test [3] has as its target T3, GAL-RXR+T3R LBD (Homo sapiens, UniProt P10828+P19793).
T3 construct: human RXRα LBD (Glu 203 - Thr 462); human T3Rβ LBD (Leu 173 - Asp 456); expressed in transfected cells; host or cells: CV-1
T3 sequence (P19793 203-462 limits assumed): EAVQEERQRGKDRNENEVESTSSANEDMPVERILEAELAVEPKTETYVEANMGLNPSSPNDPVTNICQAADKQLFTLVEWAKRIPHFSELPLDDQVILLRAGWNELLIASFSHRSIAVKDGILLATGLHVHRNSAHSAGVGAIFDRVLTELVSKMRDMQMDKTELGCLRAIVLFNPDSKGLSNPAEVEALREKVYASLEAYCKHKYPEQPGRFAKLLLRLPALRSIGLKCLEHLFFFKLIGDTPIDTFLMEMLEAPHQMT
T3 sequence (P10828 178-461 limits assumed): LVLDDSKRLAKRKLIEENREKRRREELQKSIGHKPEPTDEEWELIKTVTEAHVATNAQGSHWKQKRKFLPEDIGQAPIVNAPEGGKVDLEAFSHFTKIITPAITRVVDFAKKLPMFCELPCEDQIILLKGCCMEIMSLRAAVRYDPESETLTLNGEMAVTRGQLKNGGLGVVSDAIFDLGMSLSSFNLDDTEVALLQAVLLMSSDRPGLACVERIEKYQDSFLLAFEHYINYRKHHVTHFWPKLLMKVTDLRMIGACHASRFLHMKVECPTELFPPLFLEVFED
The test is described as follows: Transient transfection analysis of GAL-RXR LBD in the presence of T3R LBD. Type of test: cell-based. The procedure: as §1
Normalized luciferase activity was determined and plotted as fold-activation relative to untreated cells.

Test [4] deals with T4, GAL-RAR + RXR LBD (Homo sapiens, UniProt P19793).
T4 construct: or the human RXRα LBD (Glu 203 -Thr 462); expressed in transfected cells; host or cells: CV-1
T4 sequence (P19793 203-462): T3 sequence (P19793 203-462 limits assumed)
The test is described as follows: Transient transfection of GAL-RAR chimera with RXR LBD. To be noted: 100 nM LG69. It counts as cell-based. The procedure:
(§3) CV-1 cells were grown in Dulbecco's Modified Eagle's medium supplemented with 10% resin-charcoal stripped (Samuels et al., Endocrinology 105:80-85 (1979)) fetal bovine serum, 50 U/ml penicillin G and 50 μg/ml streptomycin sulfate (DMEM-FBS) at 37° C. in 5% CO2. One day prior to transfection, cells were plated to 50-80% confluence using phenol-red free DMEM-FBS. Cells were transfected by lipofection using N-{2-(2,3)-dioleoyloxy)propyl-N,N,N-trimethyl ammonium methyl sulfate} according to the manufacturer's instructions (DOTAP, Boehringer Mannheim). […] Cells were harvested and assayed for luciferase and β-galactosidase activity. All points were performed in triplicate in each experiment and varied by less than 10%. Each experiment was repeated three or more times with similar results.
(§4) Since RXR serves as a silent partner in the T3R and RAR pathways, it was next investigated whether RXR could serve as an active component in other complexes. To search for such complexes, the LBD of a number of nuclear receptors were fused to the GAL4 DBD, and tested to determine whether the RXR LBD could confer LG69 responsiveness upon these GAL-LBD chimeras. […] Normalized luciferase activity was determined and plotted as fold-activation relative to untreated cells.

The target of test [5] is T5, GAL-T3R + RXR LBD (Homo sapiens, UniProt P19793).
T5 construct: or the human RXRα LBD (Glu 203 -Thr 462); expressed in transfected cells; host or cells: CV-1
T5 sequence (P19793 203-462): T3 sequence (P19793 203-462 limits assumed)
T5 sequence (P10828 178-461 partner): T3 sequence (P10828 178-461 limits assumed)
The experiment in a line: Transient transfection of GAL-T3R chimera with RXR LBD. Type of test: cell-based. To be noted: 100 nM LG69. Here is the method: as §3, §4

In test [6] the target is T6, Nurrl (Mus musculus, UniProt Q06219).
T6 construct: an expression vector for full-length mouse Nurrl; expressed in transfected cells; host or cells: CV-1
T6 sequence (Q06219 whole entry): as the sequence (Q06219 whole entry partner, one chain of several) above
The experiment in a line: Transient transfection of full-length Nurrl on NBRE x3 TK-LUC. Type of test: cell-based. Conditions: Nurrl alone; 100 nM LG69. Here is the method:
as §3, §2

Regarding `CC=C(c1ccc(C(=O)O)cc1)c1cc2c(cc1C)C(C)(C)CCC2(C)C` [LG69, 4-{1-(3,5,5,8,8-pentamethyl-5,6,7,8-tetrahydro-2-napthalenyl)-1-propenyl}benzoic acid], the “competition of [3H] LG69 binding to GST-RXR by unlabeled ligand” value in test [1] is “specifically completed”. Further, the “responsiveness of the Nurrl-RXR complex” value in test [2] (Nurrl and RXR co-expressed, NBRE reporter) is “strongly responsive”. Further, the “response of Nurrl-RXR on NBRE reporter” value in test [2] (limiting RXR (20 ng/10^5 cells)) is reported as “potent response”. The “activity of T3+LG69 compared with T3 alone” value in test [3] (100 nM T3+100 nM LG69) is “slightly less activity”. Moreover, the “fold response to LG69” value in test [3] (GAL-RXR+T3R LBD (unliganded), 100 nM LG69) was found to be 57 fold. For the same molecule, the LG69 responsiveness entry in test [4] and in test [5] was “not seen” in each case. For the same molecule, in test [6], the “responsiveness of Nurrl on the NBRE reporter” value is reported as “not responsive”.
